Data from PubChem BioAssay AID256 (DTP/NCI, 2004).
Values joined by “and” are separate entries in the source; they are usually repeats but may differ in a detail not shown here. Equal values may be shown once. Inconclusive results and toxic doses are left out.

Test system: CD2F1 mice, L1210 leukemia ip, survival T/C
Assay: NCI In Vivo Anticancer Drug Screen. Data for tumor model L1210 Leukemia (intraperitoneal) in CD2F1 (CDF1) mice
Conditions: higher = longer survival
In short: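 Implant tumor; dose compound or vehicle; measure endpoint in both groups; report treated divided by control.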

S=c1nc[nH]c2nc[nH]c12
T/C (endpoint: mean survival time, dose: 8.0 mg/kg/injection, schedule: Q03HX024 (ip), vehicle: alkali diluted with water): 155 % of control | T/C (endpoint: mean survival time, dose: 9.38 mg/kg/injection, schedule: Q01DX009 (ip), vehicle: alkali diluted with saline): 119 % of control | T/C (endpoint: mean survival time, dose: 10.0 mg/kg/injection, schedule: Q01DX005 (ip), vehicle: alkali diluted with saline): 113 % of control | T/C (endpoint: mean survival time, dose: 10.0 mg/kg/injection, schedule: Q01DX005 (ip), vehicle: alkali diluted with water): 98 % of control | T/C (endpoint: mean survival time, dose: 16.0 mg/kg/injection, schedule: Q03HX024 (ip), vehicle: alkali diluted with water): 160 % of control | T/C (endpoint: mean survival time, dose: 18.8 mg/kg/injection, schedule: Q01DX009 (ip), vehicle: alkali diluted with saline): 113 % of control | T/C (endpoint: mean survival time, dose: 19.4 mg/kg/injection, schedule: Q04DX003 (ip), vehicle: alkali diluted with saline): 101 % of control | T/C (endpoint: mean survival time, dose: 20.0 mg/kg/injection, schedule: Q01DX007 (ip), vehicle: saline): 116 % of control | T/C (endpoint: mean survival time, dose: 20.0 mg/kg/injection, schedule: Q01DX009 (ip), vehicle: alkali diluted with water): 114 % of control | T/C (endpoint: mean survival time, dose: 20.0 mg/kg/injection, schedule: Q01DX009 (ip), vehicle: other): 121 % of control | T/C (endpoint: mean survival time, dose: 20.0 mg/kg/injection, schedule: Q01DX009 (ip), vehicle: saline): 120 % of control | T/C (endpoint: mean survival time, dose: 20.0 mg/kg/injection, schedule: Q04DX002 (ip), vehicle: saline): 120 % of control | T/C (endpoint: mean survival time, dose: 28.13 mg/kg/injection, schedule: Q04DX003 (ip), vehicle: alkali diluted with saline): 95 % of control | T/C (endpoint: mean survival time, dose: 30.0 mg/kg/injection, schedule: Q## X006 (ip), vehicle: saline): 101 % of control | T/C (endpoint: mean survival time, dose: 37.5 mg/kg/injection, schedule: Q01DX009 (ip), vehicle: alkali diluted with saline): 122 % of control | T/C (endpoint: mean survival time, dose: 40.0 mg/kg/injection, schedule: Q01DX005 (ip), vehicle: saline): 150 % of control | T/C (endpoint: mean survival time, dose: 40.0 mg/kg/injection, schedule: Q01DX005 (ip), vehicle: sodium bicarbonate): 116 % of control | T/C (endpoint: mean survival time, dose: 40.0 mg/kg/injection, schedule: Q01DX009 (ip), vehicle: other): 166 % of control and 167 % of control | T/C (endpoint: mean survival time, dose: 40.0 mg/kg/injection, schedule: Q03DX003 (ip), vehicle: saline): 113 % of control | T/C (endpoint: mean survival time, dose: 40.0 mg/kg/injection, schedule: Q04DX003 (ip), vehicle: saline): 116 % of control | T/C (endpoint: mean survival time, dose: 60.0 mg/kg/injection, schedule: Q## X009 (ip), vehicle: saline): 122 % of control | T/C (endpoint: mean survival time, dose: 66.0 mg/kg/injection, schedule: Q04DX003 (ip), vehicle: saline): 163 % of control | T/C (endpoint: mean survival time, dose: 75.0 mg/kg/injection, schedule: Q01DX009 (ip), vehicle: alkali diluted with saline): 156 % of control and 170 % of control | T/C (endpoint: mean survival time, dose: 80.0 mg/kg/injection, schedule: Q01DX001 (ip), vehicle: alkali diluted with water): 120 % of control | T/C (endpoint: mean survival time, dose: 80.0 mg/kg/injection, schedule: Q01DX005 (ip), vehicle: saline with Tween-80): 168 % of control | T/C (endpoint: mean survival time, dose: 80.0 mg/kg/injection, schedule: Q01DX005 (ip), vehicle: saline): 170 % of control and 172 % of control | T/C (endpoint: mean survival time, dose: 80.0 mg/kg/injection, schedule: Q01DX005 (ip), vehicle: sodium bicarbonate): 157 % of control | T/C (endpoint: mean survival time, dose: 80.0 mg/kg/injection, schedule: Q01DX007 (ip), vehicle: saline): 158 % of control | T/C (endpoint: mean survival time, dose: 80.0 mg/kg/injection, schedule: Q01DX009 (ip), vehicle: alkali diluted with saline): 150 % of control | T/C (endpoint: mean survival time, dose: 80.0 mg/kg/injection, schedule: Q01DX009 (ip), vehicle: alkali diluted with water): 150 % of control and 158 % of control | T/C (endpoint: mean survival time, dose: 80.0 mg/kg/injection, schedule: Q01DX009 (ip), vehicle: other): 156 % of control | T/C (endpoint: mean survival time, dose: 80.0 mg/kg/injection, schedule: Q01DX009 (ip), vehicle: saline): 156 % of control | T/C (endpoint: mean survival time, dose: 80.0 mg/kg/injection, schedule: Q04DX002 (ip), vehicle: saline): 150 % of control | T/C (endpoint: mean survival time, dose: 90.0 mg/kg/injection, schedule: Q## X002 (ip), vehicle: saline): 153 % of control | T/C (endpoint: mean survival time, dose: 125.0 mg/kg/injection, schedule: Q01DX001 (ip), vehicle: alkali diluted with saline): 120 % of control | T/C (endpoint: mean survival time, dose: 150.0 mg/kg/injection, schedule: Q01DX009 (ip), vehicle: alkali diluted with saline): 113 % of control and 95 % of control | T/C (endpoint: mean survival time, dose: 150.0 mg/kg/injection, schedule: Q04DX003 (ip), vehicle: alkali diluted with saline): 155 % of control | T/C (endpoint: mean survival time, dose: 160.0 mg/kg/injection, schedule: Q01DX001 (ip), vehicle: alkali diluted with water): 152 % of control | T/C (endpoint: mean survival time, dose: 160.0 mg/kg/injection, schedule: Q01DX005 (ip), vehicle: saline with Tween-80): 175 % of control | T/C (endpoint: mean survival time, dose: 160.0 mg/kg/injection, schedule: Q01DX005 (ip), vehicle: saline): 171 % of control | T/C (endpoint: mean survival time, dose: 160.0 mg/kg/injection, schedule: Q01DX009 (ip), vehicle: alkali diluted with saline): 101 % of control | T/C (endpoint: mean survival time, dose: 160.0 mg/kg/injection, schedule: Q01DX009 (ip), vehicle: alkali diluted with water): 114 % of control and 88 % of control | T/C (endpoint: mean survival time, dose: 160.0 mg/kg/injection, schedule: Q01DX009 (ip), vehicle: other): 87 % of control | T/C (endpoint: mean survival time, dose: 165.0 mg/kg/injection, schedule: Q01DX001 (ip), vehicle: alkali diluted with saline): 122 % of control | T/C (endpoint: mean survival time, dose: 180.0 mg/kg/injection, schedule: Q## X002 (ip), vehicle: saline): 164 % of control | T/C (endpoint: mean survival time, dose: 180.0 mg/kg/injection, schedule: Q## X009 (ip), vehicle: saline): 154 % of control | T/C (endpoint: mean survival time, dose: 270.0 mg/kg/injection, schedule: Q## X006 (ip), vehicle: saline): 150 % of control | T/C (endpoint: mean survival time, dose: 270.0 mg/kg/injection, schedule: Q## X009 (ip), vehicle: saline): 153 % of control | T/C (endpoint: median survival time, dose: 15.6 mg/kg/injection, schedule: Q01DX009 (ip), vehicle: alkali diluted with saline): 116 % of control | T/C (endpoint: median survival time, dose: 18.0 mg/kg/injection, schedule: Q01DX009 (ip), vehicle: alkali diluted with saline): 118 % of control | T/C (endpoint: median survival time, dose: 20.0 mg/kg/injection, schedule: Q01DX005 (ip), vehicle: water): 187 % of control | T/C (endpoint: median survival time, dose: 25.0 mg/kg/injection, schedule: Q01DX009 (ip), vehicle: Klucel (hydroxypropylcellulose) (HPC)): 182 % of control | T/C (endpoint: median survival time, dose: 25.0 mg/kg/injection, schedule: Q01DX009 (ip), vehicle: alkali diluted with water): 122 % of control | T/C (endpoint: median survival time, dose: 25.9 mg/kg/injection, schedule: Q01DX009 (ip), vehicle: alkali diluted with saline): 124 % of control | T/C (endpoint: median survival time, dose: 26.0 mg/kg/injection, schedule: Q01DX009 (ip), vehicle: Klucel (hydroxypropylcellulose) (HPC)): 170 % of control | T/C (endpoint: median survival time, dose: 30.0 mg/kg/injection, schedule: Q01DX009 (ip), vehicle: alkali diluted with saline): 121 % of control | T/C (endpoint: median survival time, dose: 37.5 mg/kg/injection, schedule: Q04DX003 (ip), vehicle: Klucel (hydroxypropylcellulose) (HPC)): 154 % of control | T/C (endpoint: median survival time, dose: 40.0 mg/kg/injection, schedule: Q01DX005 (ip), vehicle: water): 310 % of control | T/C (endpoint: median survival time, dose: 40.0 mg/kg/injection, schedule: Q01DX009 (ip), vehicle: Klucel (hydroxypropylcellulose) (HPC)): 159 % of control | T/C (endpoint: median survival time, dose: 40.0 mg/kg/injection, schedule: Q01DX009 (ip), vehicle: alkali diluted with saline): 123 % of control | T/C (endpoint: median survival time, dose: 50.0 mg/kg/injection, schedule: Q01DX009 (ip), vehicle: Klucel (hydroxypropylcellulose) (HPC)): 259 % of control | T/C (endpoint: median survival time, dose: 50.0 mg/kg/injection, schedule: Q01DX009 (ip), vehicle: alkali diluted with water): 164 % of control | T/C (endpoint: median survival time, dose: 50.0 mg/kg/injection, schedule: Q04DX003 (ip), vehicle: alkali diluted with saline): 101 % of control | T/C (endpoint: median survival time, dose: 60.0 mg/kg/injection, schedule: Q01DX009 (ip), vehicle: alkali diluted with saline): 173 % of control | T/C (endpoint: median survival time, dose: 60.0 mg/kg/injection, schedule: Q01DX009 (ip), vehicle: water): 159 % of control | T/C (endpoint: median survival time, dose: 70.0 mg/kg/injection, schedule: Q01DX009 (ip), vehicle: alkali diluted with saline): 151 % of control and 158 % of control | T/C (endpoint: median survival time, dose: 72.0 mg/kg/injection, schedule: Q01DX009 (ip), vehicle: alkali diluted with saline): 150 % of control | T/C (endpoint: median survival time, dose: 75.0 mg/kg/injection, schedule: Q04DX003 (ip), vehicle: Klucel (hydroxypropylcellulose) (HPC)): 176 % of control | T/C (endpoint: median survival time, dose: 78.0 mg/kg/injection, schedule: Q04DX003 (ip), vehicle: other): 120 % of control | T/C (endpoint: median survival time, dose: 80.0 mg/kg/injection, schedule: Q01DX005 (ip), vehicle: Klucel (hydroxypropylcellulose) (HPC)): 158 % of control | T/C (endpoint: median survival time, dose: 80.0 mg/kg/injection, schedule: Q01DX005 (ip), vehicle: water): 164 % of control | T/C (endpoint: median survival time, dose: 80.0 mg/kg/injection, schedule: Q01DX009 (ip), vehicle: water): 158 % of control | T/C (endpoint: median survival time, dose: 83.3 mg/kg/injection, schedule: Q01DX009 (ip), vehicle: alkali diluted with saline): 160 % of control | T/C (endpoint: median survival time, dose: 100.0 mg/kg/injection, schedule: Q01DX001 (ip), vehicle: alkali diluted with saline): 117 % of control and 122 % of control | T/C (endpoint: median survival time, dose: 100.0 mg/kg/injection, schedule: Q01DX001 (ip), vehicle: alkali diluted with water): 157 % of control | T/C (endpoint: median survival time, dose: 100.0 mg/kg/injection, schedule: Q01DX005 (ip), vehicle: alkali diluted with water): 172 % of control | T/C (endpoint: median survival time, dose: 100.0 mg/kg/injection, schedule: Q01DX009 (ip), vehicle: Klucel (hydroxypropylcellulose) (HPC)): 211 % of control | T/C (endpoint: median survival time, dose: 100.0 mg/kg/injection, schedule: Q04DX003 (ip), vehicle: alkali diluted with saline): 116 % of control | T/C (endpoint: median survival time, dose: 120.0 mg/kg/injection, schedule: Q01DX009 (ip), vehicle: alkali diluted with saline): 154 % of control | T/C (endpoint: median survival time, dose: 150.0 mg/kg/injection, schedule: Q04DX003 (ip), vehicle: Klucel (hydroxypropylcellulose) (HPC)): 178 % of control | T/C (endpoint: median survival time, dose: 160.0 mg/kg/injection, schedule: Q01DX005 (ip), vehicle: Klucel (hydroxypropylcellulose) (HPC)): 164 % of control | T/C (endpoint: median survival time, dose: 200.0 mg/kg/injection, schedule: Q01DX005 (ip), vehicle: alkali diluted with water): 89 % of control | T/C (endpoint: median survival time, dose: 200.0 mg/kg/injection, schedule: Q01DX009 (ip), vehicle: Klucel (hydroxypropylcellulose) (HPC)): 154 % of control | T/C (endpoint: median survival time, dose: 200.0 mg/kg/injection, schedule: Q01DX009 (ip), vehicle: alkali diluted with water): 88 % of control | T/C (endpoint: median survival time, dose: 200.0 mg/kg/injection, schedule: Q04DX003 (ip), vehicle: alkali diluted with saline): 155 % of control | T/C (endpoint: median survival time, dose: 200.0 mg/kg/injection, schedule: Q04DX003 (ip), vehicle: other): 475 % of control | T/C (endpoint: median survival time, dose: 400.0 mg/kg/injection, schedule: Q01DX009 (ip), vehicle: Klucel (hydroxypropylcellulose) (HPC)): 152 % of control | T/C (endpoint: median survival time, dose: 600.0 mg/kg/injection, schedule: Q04DX003 (ip), vehicle: Klucel (hydroxypropylcellulose) (HPC)): 194 % of control
